Tests used:
hERG potassium channels = target: T1, hERG potassium channels (Homo sapiens, UniProt Q12809); assay: Blocking effect on hERG potassium current, automatic patch-clamp, HEK293-hERG stable cell line; assay type: cell-based
T1 construct: expressed in transfected cells
Protocol: The blocking effect of the compound of the present application on hERG potassium current was tested using an automatic patch-clamp on a stable cell line transfected with hERG potassium channels.
The HEK293-hERG stable cell line was subcultured at a density of 1:4 in MEM/EBSS medium (10% FBS, 400 μg/mL G418, 1% MEM non-essential amino acid solution (100×), 1% sodium pyruvate solution) and cultured within 48-72 hours for automatic patch-clamp experiments. On the day of the experiment, the cells were digested with 0.25% trypsin, collected by centrifugation and resuspended with extracellular fluid (140 mM NaCl, 4 mM KCl, 1 mM MgCl2, 2 mM CaCl2, 5 mM MD glucose monohydrate, 10 mM Hepes, pH 7.4, 298 mOsmol) to give a cell suspension. […] The currents at each concentration of the compound and the blank control current were analyzed by HEAK Patchmaster, HEAK EPC 10 patch clamp amplifiers (Nanion) and Pathlinersoftware and data analysis software provided by Pathcontrol HTsoftware.
Blocking effect of the compound of the present application on hERG potassium current was determined by the above experimental method, and the IC50 values were as shown in Table 5.

human TLR8 = target: T2, human TLR8 (Homo sapiens, UniProt Q9NR97); assay: Activation of hTLR8 in HEK-Blue hTLR8 stably transfected cells; assay type: cell-based; conditions: OD 620 nm, 6-16 hours
T2 construct: host or cells: HEK-Blue hTLR8 (HEK293-derived) stably transfected cells
T2 sequence (Q9NR97 27-1041): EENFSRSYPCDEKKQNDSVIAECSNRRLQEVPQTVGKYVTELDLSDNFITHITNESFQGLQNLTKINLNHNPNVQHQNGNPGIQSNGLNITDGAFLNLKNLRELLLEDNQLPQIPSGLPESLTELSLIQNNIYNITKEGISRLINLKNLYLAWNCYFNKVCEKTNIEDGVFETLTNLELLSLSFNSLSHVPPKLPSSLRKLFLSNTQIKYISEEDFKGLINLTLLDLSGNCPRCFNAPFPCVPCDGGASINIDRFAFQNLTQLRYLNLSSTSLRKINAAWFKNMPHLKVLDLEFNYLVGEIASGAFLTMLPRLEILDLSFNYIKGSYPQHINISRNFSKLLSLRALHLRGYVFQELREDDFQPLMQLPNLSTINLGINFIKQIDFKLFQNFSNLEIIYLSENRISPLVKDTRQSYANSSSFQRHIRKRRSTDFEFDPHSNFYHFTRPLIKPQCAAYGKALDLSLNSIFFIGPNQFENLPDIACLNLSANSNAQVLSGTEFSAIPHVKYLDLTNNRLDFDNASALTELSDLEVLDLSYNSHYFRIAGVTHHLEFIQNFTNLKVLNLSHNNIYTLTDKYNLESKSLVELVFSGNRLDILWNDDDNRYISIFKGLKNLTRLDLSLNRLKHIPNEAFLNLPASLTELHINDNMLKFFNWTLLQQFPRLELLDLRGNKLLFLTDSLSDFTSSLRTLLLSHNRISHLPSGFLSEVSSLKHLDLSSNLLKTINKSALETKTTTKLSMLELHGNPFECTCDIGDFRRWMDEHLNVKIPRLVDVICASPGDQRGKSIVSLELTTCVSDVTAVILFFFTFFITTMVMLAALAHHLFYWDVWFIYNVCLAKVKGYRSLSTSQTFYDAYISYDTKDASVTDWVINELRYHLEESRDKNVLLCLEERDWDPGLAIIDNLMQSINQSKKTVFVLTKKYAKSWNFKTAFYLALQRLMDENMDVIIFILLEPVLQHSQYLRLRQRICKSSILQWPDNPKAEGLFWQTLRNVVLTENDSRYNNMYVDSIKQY
Protocol: The activation effect of the compound of the present application on the hTLR7 protein expressed in HEK-Blue™ hTLR7 stably transfected cells and hTLR8 protein expressed in HEK-Blue™ hTLR8 stably transfected cells were determined by the following experimental method:
The HEK-Blue assay medium was configured, HEK-Blue test dry powder was taken and 50 mL deendotoxin water were added to dissolve, then the resulting mixture was placed into the 37° C. incubator, and then filtered aseptically 10 minutes later. […]
The above-prepared compound was diluted 20-fold with a medium, and then 20 μL of the diluted compound were added to each well. HEK-Blue™ hTLR7 cells and HEK-Blue™ hTLR8 cells were taken separately, and the supernatant was removed first, then 2-5 mL pre-warmed PBS was added, placed in an incubator for 1-2 minutes, and the cells were gently pipetted, stained with trypan blue and counted. […]
The microplate reader reads at a wavelength of 620 nm. The corresponding OD value was obtained, and the EC50 value of the drug was calculated by Graphpad Prism. The activation effect of the compound of the present application and the control compound (prepared by the method of embodiment 21 of WO2016023511) on human TLR7 and TLR8 were determined by the above test, and the measured EC50 values were as shown in Table 1.

T1 sequence (Q12809 whole entry): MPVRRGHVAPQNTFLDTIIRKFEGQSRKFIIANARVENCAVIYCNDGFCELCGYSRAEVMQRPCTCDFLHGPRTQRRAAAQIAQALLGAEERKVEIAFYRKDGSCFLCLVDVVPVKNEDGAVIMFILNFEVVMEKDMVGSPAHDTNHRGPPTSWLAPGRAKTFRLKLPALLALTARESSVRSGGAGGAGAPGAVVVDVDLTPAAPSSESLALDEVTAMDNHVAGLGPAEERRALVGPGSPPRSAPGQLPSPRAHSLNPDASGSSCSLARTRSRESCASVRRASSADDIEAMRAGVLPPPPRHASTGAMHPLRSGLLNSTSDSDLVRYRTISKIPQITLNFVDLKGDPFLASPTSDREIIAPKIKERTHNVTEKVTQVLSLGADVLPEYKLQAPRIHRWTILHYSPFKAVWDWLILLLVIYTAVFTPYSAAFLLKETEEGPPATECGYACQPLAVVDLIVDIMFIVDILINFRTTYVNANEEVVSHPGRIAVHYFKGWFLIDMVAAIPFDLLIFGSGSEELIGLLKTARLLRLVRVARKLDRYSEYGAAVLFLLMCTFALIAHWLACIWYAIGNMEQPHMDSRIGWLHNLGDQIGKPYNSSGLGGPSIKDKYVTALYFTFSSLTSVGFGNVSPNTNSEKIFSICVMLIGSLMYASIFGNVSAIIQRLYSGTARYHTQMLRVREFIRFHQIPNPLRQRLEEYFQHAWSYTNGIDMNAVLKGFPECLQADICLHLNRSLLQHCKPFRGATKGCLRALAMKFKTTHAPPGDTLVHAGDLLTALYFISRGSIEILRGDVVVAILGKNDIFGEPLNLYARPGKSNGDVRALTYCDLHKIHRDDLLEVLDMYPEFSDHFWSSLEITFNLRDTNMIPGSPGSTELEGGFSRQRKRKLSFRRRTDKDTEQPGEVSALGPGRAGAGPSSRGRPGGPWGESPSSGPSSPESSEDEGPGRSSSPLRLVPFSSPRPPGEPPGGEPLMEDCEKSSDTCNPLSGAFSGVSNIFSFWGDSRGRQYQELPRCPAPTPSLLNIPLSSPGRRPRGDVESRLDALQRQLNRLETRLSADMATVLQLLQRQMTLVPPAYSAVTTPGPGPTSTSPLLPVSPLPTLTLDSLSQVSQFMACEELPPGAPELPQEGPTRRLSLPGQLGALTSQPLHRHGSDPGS

Row | Structure (SMILES) | IC50 (hERG potassium channels) [µM] | EC50 (human TLR8) [µM]
1 | CCCCOc1nc(N)c2[nH]nc(Cc3ccc(CN4CCCC4)cc3)c2n1 [Embodiment 1, 5-Butoxy-3-(4-(pyrrolidin-1-ylmethyl)benzyl)-1H-pyrazolo[4,3-d]pyrimidin-7-amine] | > 30 | 5.22
2 | CCCCOc1nc(N)c2[nH]cc(Cc3ccc(CN4CCCC4)cc3)c2n1 [Embodiment 21 of WO2016023511] | 3.6 | 12.5
